Tests used:
[1] = system: IPOHE (Morningglory, Ivyleaf); assay: Postemergence herbicidal evaluation; type: in vivo, Ipomoea hederacea
Method in brief: (§1)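 Rate range approx. 0.0156–0.500 kg/ha. Foliar application at 40 psi to ~2-week seedlings; surfactant 0.5% TWEEN 20 in 50/50 acetone/water. Evaluation 4–5 wk post-treatment by 0–9 visual injury score, means of replicate tests.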

[2] = system: ECHORC (Watergrass (Calif.)); assay: Preemergence weed control under flooded paddy conditions; type: in vivo, Echinochloa oryzoides; settings: rated 3-4 weeks after treatment
Method in brief: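 Silt loam, seeds in top 0.5 cm; flood held 1.5-3 cm; test cpd as acetone/water 50/50 into flood water, ~0.0313-0.500 kg/ha a.i.; greenhouse 3-4 wk; visual 0-9 score vs control.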

[3] = system: IPOHE (Morningglory, Ivyleaf); assay: Preemergence herbicidal evaluation; type: in vivo, Ipomoea hederacea; settings: rated 4-5 weeks after treatment
Method in brief: (§2)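 Rating at 4–5 wk post-spray on a 0–9 visual scale vs control. Application: aqueous acetone, ~0.0156–0.500 kg/ha, to soil surface after seeding, preemergence.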

ABUTH (Velvetleaf) = assay: Postemergence herbicidal evaluation; type: in vivo, Abutilon theophrasti
Method in brief: as §1

ECHCG (Barnyardgrass) = assay: Preemergence herbicidal evaluation; type: in vivo, Echinochloa crus-galli; settings: rated 4-5 weeks after treatment
Method in brief: as §2

[4] = system: TRZAWR (Wheat, Winter, cv Riband); assay: Postemergence herbicidal evaluation; type: in vivo, Triticum aestivum
Method in brief: as §1

[5] = system: TRZAWR (Wheat, Winter, cv Riband); assay: Preemergence herbicidal evaluation; type: in vivo, Triticum aestivum; settings: rated 4-5 weeks after treatment
Method in brief: as §2

[6] = system: ECHORC (Watergrass (Calif.)); assay: Postemergence weed control under flooded paddy conditions; type: in vivo, Echinochloa oryzoides; settings: postemergence weeds, 3-4 weeks after treatment
Method in brief: (§3)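 Containers holding 3–5 cm weeds and rice at 1.5–2.5 leaves are flooded to 1.5–3 cm above soil. Compound in 50/50 v/v aqueous/acetone is then added directly to the water, about 0.0313–0.500 kg/ha. Plants are kept in the greenhouse and rated 0–9 visually at 3–4 weeks.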

[7] = system: CHEAL (Lambsquarters, Common); assay: Preemergence herbicidal evaluation; type: in vivo, Chenopodium album; settings: rated 4-5 weeks after treatment
Method in brief: as §2

ORYSAT (Rice, Tebonnet) = assay: Preemergence herbicidal evaluation; type: in vivo, Oryza sativa, (L.) Tebonnet; settings: rated 4-5 weeks after treatment
Method in brief: as §2

SETVI (Foxtail, Green) = assay: Preemergence herbicidal evaluation; type: in vivo, Setaria viridis; settings: rated 4-5 weeks after treatment
Method in brief: as §2

CYPIR (Rice Flatsedge) = assay: Postemergence weed control under flooded paddy conditions; type: in vivo, Cyperus iria; settings: postemergence weeds, 3-4 weeks after treatment
Method in brief: as §3

Structure (SMILES): CCOC(=O)CN1CC(=O)N(CC(=O)OCC)C1=Nc1cc(-n2c(=O)cc(C(F)(F)F)n(C)c2=O)c(F)cc1Cl [Compound 34, 2-{{2-Chloro-5-[3,6-dihydro-3-methyl-2,6-dioxo-4-(trifluoromethyl)-1(2H)-pyrimidinyl]-4-fluoro-phenyl}imino}-4-oxo-1,3-imidazolidinediacetic acid, diethyl ester]
- Postemergence herbicidal rating IPOHE ([1]; Rate 0.0158 kg/ha): 9.0
- Postemergence herbicidal rating IPOHE ([1]; Rate 0.0315 kg/ha): 9.0
- Postemergence herbicidal rating IPOHE ([1]; Rate 0.0630 kg/ha): 9.0
- Herbicidal rating ECHORC ([2]; 0.0313 kg/ha): 3.0
- Herbicidal rating ECHORC ([2]; 0.0625 kg/ha): 4.0
- Herbicidal rating ECHORC ([2]; 0.1250 kg/ha): 4.0
- Herbicidal rating ECHORC ([2]; 0.2500 kg/ha): 9.0
- Preemergence herbicidal rating IPOHE ([3]; rate 0.0313 kg/ha): 0.0
- Preemergence herbicidal rating IPOHE ([3]; rate 0.0625 kg/ha): 3.0
- Preemergence herbicidal rating IPOHE ([3]; rate 0.1250 kg/ha): 3.0
- Preemergence herbicidal rating IPOHE ([3]; rate 0.2500 kg/ha): 9.0
- Postemergence herbicidal rating ABUTH (ABUTH (Velvetleaf); Rate 0.0158 kg/ha): 9.0
- Postemergence herbicidal rating ABUTH (ABUTH (Velvetleaf); Rate 0.0315 kg/ha): 9.0
- Postemergence herbicidal rating ABUTH (ABUTH (Velvetleaf); Rate 0.0630 kg/ha): 9.0
- Preemergence herbicidal rating ECHCG (ECHCG (Barnyardgrass); rate 0.0313 kg/ha): 0.0
- Preemergence herbicidal rating ECHCG (ECHCG (Barnyardgrass); rate 0.0625 kg/ha): 0.0
- Preemergence herbicidal rating ECHCG (ECHCG (Barnyardgrass); rate 0.1250 kg/ha): 2.0
- Preemergence herbicidal rating ECHCG (ECHCG (Barnyardgrass); rate 0.2500 kg/ha): 5.0
- Postemergence herbicidal rating TRZAWR ([4]; Rate 0.0158 kg/ha): 4.0
- Postemergence herbicidal rating TRZAWR ([4]; Rate 0.0315 kg/ha): 4.0
- Postemergence herbicidal rating TRZAWR ([4]; Rate 0.0630 kg/ha): 5.0
- Preemergence herbicidal rating TRZAWR ([5]; rate 0.0313 kg/ha): 0.0
- Preemergence herbicidal rating TRZAWR ([5]; rate 0.0625 kg/ha): 0.0
- Preemergence herbicidal rating TRZAWR ([5]; rate 0.1250 kg/ha): 1.0
- Preemergence herbicidal rating TRZAWR ([5]; rate 0.2500 kg/ha): 5.0
- Herbicidal rating ECHORC ([6]; rate 0.0313 kg/ha): 3.0
- Herbicidal rating ECHORC ([6]; rate 0.0625 kg/ha): 4.0
- Herbicidal rating ECHORC ([6]; rate 0.1250 kg/ha): 4.0
- Herbicidal rating ECHORC ([6]; rate 0.2500 kg/ha): 9.0
- Preemergence herbicidal rating CHEAL ([7]; rate 0.0313 kg/ha): 9.0
- Preemergence herbicidal rating CHEAL ([7]; rate 0.0625 kg/ha): 9.0
- Preemergence herbicidal rating CHEAL ([7]; rate 0.1250 kg/ha): 9.0
- Preemergence herbicidal rating CHEAL ([7]; rate 0.2500 kg/ha): 9.0
- Preemergence herbicidal rating ORYSAT (ORYSAT (Rice, Tebonnet); rate 0.0313 kg/ha): 0.0
- Preemergence herbicidal rating ORYSAT (ORYSAT (Rice, Tebonnet); rate 0.0625 kg/ha): 0.0
- Preemergence herbicidal rating ORYSAT (ORYSAT (Rice, Tebonnet); rate 0.1250 kg/ha): 2.0
- Preemergence herbicidal rating ORYSAT (ORYSAT (Rice, Tebonnet); rate 0.2500 kg/ha): 5.0
- Preemergence herbicidal rating SETVI (SETVI (Foxtail, Green); rate 0.0313 kg/ha): 3.0
- Preemergence herbicidal rating SETVI (SETVI (Foxtail, Green); rate 0.0625 kg/ha): 9.0
- Preemergence herbicidal rating SETVI (SETVI (Foxtail, Green); rate 0.1250 kg/ha): 9.0
- Preemergence herbicidal rating SETVI (SETVI (Foxtail, Green); rate 0.2500 kg/ha): 9.0
- Herbicidal rating CYPIR (CYPIR (Rice Flatsedge); rate 0.0313 kg/ha): 0.0
- Herbicidal rating CYPIR (CYPIR (Rice Flatsedge); rate 0.0625 kg/ha): 0.0
- Herbicidal rating CYPIR (CYPIR (Rice Flatsedge); rate 0.1250 kg/ha): 0.0
- Herbicidal rating CYPIR (CYPIR (Rice Flatsedge); rate 0.2500 kg/ha): 0.0
